Data as given in PMC8147214, “Identification and Characterization of a Novel, Cold-Adapted D-Xylobiose- and D-Xylose-Releasing Endo-β-1,4-Xylanase from an Antarctic Soil Bacterium, Duganella sp. PAMC 27433” (Biomolecules, 2021).

Tested on: T1, rXylR
T1 construct: gene XylR; mature GH10 xylanase, signal peptide (1-23) removed, N-terminal His6 tag (pET-28a(+)) kept; E. coli BL21; precursor 373 aa; mature N-terminus AEDTPEP by primer
Assay: p-nitrophenol release, Michaelis-Menten non-linear regression
Assay type: biochemical, Duganella sp. PAMC 27433
Conditions: 50 mM sodium phosphate pH 5.5, 40 °C; substrate 1-10 mM
Source text: p-nitrophenol release, Michaelis-Menten non-linear regression on rXylR

- Km: 1.21 mM
Structure (SMILES): O=[N+]([O-])c1ccc(O[C@@H]2O[C@H](CO)[C@@H](O[C@@H]3O[C@H](CO)[C@@H](O)[C@H](O)[C@H]3O)[C@H](O)[C@H]2O)cc1 [pNP-β-D-cellobioside]
